{"source": "patent US20100297102A1", "about": "“SEROTONIN 5-HT3A RECEPTORS IN TREATMENT OF NEUROLOGICAL AND PSYCHIATRIC DISORDERS” (priority 2006, published 2010)", "key": {"[1]": {"system": "transgenic mice", "assay": "Toxicity of BrdU injections in birthdating experiments", "assay_type": "in vivo", "experimental": "Birthdating analysis. Pregnant mice and P7 transgenic mice were injected intraperitoneally with 50 mg/kg or 300 mg/kg BrdU (Sigma) (body weight), sacrificed after 1 or 4 weeks and processed for immunostaining.\nFive BrdU injections (50 mg/kg, intraperitoneally) were administered every 2 hrs apart for 8 hours at E12.5, E14.5, E16.5 and P7 (FIG. 10). […] To avoid a cumulative effect, 5 pulses of BrdU (one pulse per day) were administered from P7 to P12. At P7 two treatments, one with 50 mg/kg and with 300 mg/kg of BrdU were carried."}, "[2]": {"settings": "after intraperitoneal injection; cited from earlier work"}, "[3]": {"system": "EGFP-positive cells", "assay": "Organotypic slice culture: migration/distribution of EGFP-positive neuroblasts", "assay_type": "cell-based, mice", "description": "The presence of functional 5-HT3 receptors on neuroblasts raised the question whether the receptor activation plays a role in the migration and maturation of GABAergic inhibitory neurons in postnatal life. To this end, studies were carried out in organotypic slices obtained from P3 transgenic mice (n=8) and cultured in vitro for 6 days. There were clear alterations in the cortical distribution of EGFP-positive cells in slices treated with the specific 5-HT3 antagonist tropisetron (1 μM) compared to corresponding untreated slices (FIGS. 4, A and B). The decrease in the number of EGFP-expressing cells in tropisetron-treated animals in cortex and hippocampus indicates a deficit in the migration of these cells, rather than cell death since the neuroblasts are still clearly visible in the stream. […] By P3 when slices were made, many EGFP-expressing cells have already reached their destination.\nOrganotypic slice culture experiments. Organotypic slice cultures were performed as previously described. After 6 days in culture, slices, control or treated with tropisetron (Sigma), were fixed for 1 hr in 4% PFA and processed for immunostaining using polyclonal rabbit anti-EGFP antibody. Cell counts were performed in pairs of matching tropisetron-treated and untreated slices. EGFP-positive cells were counted in deep, in superficial cortical layers and in stratum radiatum of the hippocampus within three standardized rectangular regions of 200×150 μm2 for each region. Data from control and treated slices were analyzed by Student's t test."}, "[4]": {"biological_target": "T1, 5-HT3 receptor (Mus musculus, UniProt P23979)", "T1 sequence (P23979 24-489)": "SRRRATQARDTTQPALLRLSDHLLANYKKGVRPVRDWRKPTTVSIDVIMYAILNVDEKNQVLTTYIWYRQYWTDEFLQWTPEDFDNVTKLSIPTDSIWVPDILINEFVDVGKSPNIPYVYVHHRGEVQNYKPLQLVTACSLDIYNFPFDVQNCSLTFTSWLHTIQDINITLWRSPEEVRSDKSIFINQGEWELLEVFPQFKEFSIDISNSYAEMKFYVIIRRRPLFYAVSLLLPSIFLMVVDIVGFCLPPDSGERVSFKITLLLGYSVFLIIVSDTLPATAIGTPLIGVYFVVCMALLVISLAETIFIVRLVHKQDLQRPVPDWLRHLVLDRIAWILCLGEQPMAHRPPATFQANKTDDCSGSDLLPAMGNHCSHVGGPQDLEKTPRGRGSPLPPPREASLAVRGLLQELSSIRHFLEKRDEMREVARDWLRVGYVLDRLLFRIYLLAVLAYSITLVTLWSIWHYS", "assay": "Whole-cell patch-clamp of 5-HT3 receptor-mediated inward current in EGFP-positive neurons/neuroblasts in acute slices", "assay_type": "cell-based, mice", "text": "We thus performed patch-clamp recordings from cells with the typical migratory morphology in the DMS using acute sagittal slices from transgenic animals (FIG. 3, A).\nSlice preparation and electrophysiology. 250-350 μm-thick parasagittal brain sections (for recordings in hippocampus, cortex, RMS and DMS) or coronal brain sections (for recordings in amygdala) were made from transgenic mice (P8-P42) using a vibratome (Leica VT1000S). Whole-cell voltage and current clamp recordings were made from visually identified, EGFPpositive neurons using and EPC9 amplifier (HEKA) and an upright microscope (Zeiss Axioskop FS2) equipped with IR-DIC and standard epifluorescence. […] Slices were continuously superfused with ACSF containing (in mM): 120 NaCl, 3.5 KCl, 2.5 CaCl2, 1.3 MgSO4, 1.25 NaH2PO4, 25 NaHCO3, 25 glucose. The presence of functional 5-HT3 receptors was assessed by application of 100 μM 5-HT (dissolved in ACSF) via pressure 12 ejection from a second pipette connected to a picospritzer. Cells were voltage clamped at −60 mV. Signals were filtered at 1-5 kHz, sampled at 2-10 kHz and off-line analysis was performed using Igor Pro (Wavemetrics)."}, "[5]": {"settings": "tropisetron 1 μM, slices from P3 transgenic mice, 6 days in culture, n=8"}}, "data": [{"smiles": "O=c1[nH]c(=O)n([C@H]2C[C@H](O)[C@@H](CO)O2)cc1Br", "note": "[BrdU]", "values": [{"measurement": "toxic effects", "setting": "[1]; P16 mice after BrdU treatment, 50 mg/kg and 300 mg/kg i.p., dose-dependent", "result": "Hair loss and motor deficits"}, {"measurement": "EGFP-positive cell number in the granule cell layer and periglomerular cell layer of the OB", "setting": "[1]; at P16, injected at P7 with 50 mg/kg BrdU, compared to untreated transgenic control mice (FIG. 10F)", "result": "Reduction"}, {"measurement": "EGFP-positive cell number in the granule cell layer and periglomerular cell layer of the OB", "setting": "[1]; at P16, injected at P7 with 300 mg/kg BrdU, compared to untreated transgenic control mice (FIG. 10G)", "result": "Reduction"}, {"measurement": "number of EGFP-positive cells in the cortex, the RMS and OB", "setting": "[1]; at P16 after postnatal treatment with BrdU", "result": "reduction"}, {"measurement": "persistence in the circulation", "setting": "[2]", "result": "less than a few hours"}]}, {"smiles": "CN1[C@@H]2CC[C@H]1C[C@@H](OC(=O)c1c[nH]c3ccccc13)C2", "note": "[tropisetron]", "values": [{"measurement": "cell density in the DMS", "setting": "[3]; slices from P3 transgenic mice treated with tropisetron, compared to control (FIG. 4)", "result": "increase in cell density in the DMS"}, {"measurement": "number of EGFP positive cells in hippocampus, of control levels", "setting": "[3]; tropisetron 100 nM, n=3", "result": 74.7, "unit": "%"}, {"measurement": "number of EGFP positive cells in superficial cortical layers, of control levels", "setting": "[3]; tropisetron 100 nM, n=3", "result": 81.1, "unit": "%"}, {"measurement": "number of EGFP positive cells in the deep cortex, of control levels", "setting": "[3]; tropisetron 100 nM, n=3", "result": 70.8, "unit": "%"}, {"measurement": "number of EGFP positive cells in deep cortical layers, of the control level", "setting": "[3]; [5]", "result": 68.4, "unit": "%"}, {"measurement": "number of EGFP positive cells in stratum radiatum of the hippocampus, of the control level", "setting": "[3]; [5]", "result": 72.6, "unit": "%"}, {"measurement": "number of EGFP positive cells in superficial layers, of the control level", "setting": "[3]; [5]", "result": 76.4, "unit": "%"}]}, {"smiles": "NCCc1c[nH]c2ccc(O)cc12", "note": "[5-HT, 5-hydroxytryptamine]", "values": [{"measurement": "5-HT3 receptor-mediated inward current, average amplitude", "setting": "[4]; application of 5-HT (100 μM), mature/spiking neuroblasts in the DMS, 18 out of 22 responded", "result": "−46.0±10.5", "unit": "pA"}]}, {"smiles": "CN1[C@@H]2CC[C@H]1C[C@@H](OC(=O)c1cc(Cl)cc(Cl)c1)C2", "note": "[MDL72222]", "values": [{"measurement": "block of 5-HT3 receptor-mediated inward current evoked by 100 μM 5-HT", "setting": "[4]; whole-cell voltage clamped EGFP-positive neurons, n=5 (FIG. 1B)", "result": "can be blocked"}]}]}
